Laboratory results: patent US20210030022A1, “NOVEL USE OF SUBSTITUTED CHROMAN-6-OLS” (DSM IP ASSETS B.V., priority 2018, published 2021)

Key:
Solubility in fish oil = type: physicochemical
Procedure: The compounds of formulae (4), (6), (8) and (9) were evaluated primarily for their oxidative stability by the Oil Stability Index (OSI) measurements. Two different levels of these antioxidants (0.5 and 2 mg/g) were used in 5 g of natural fish oil (Product code: FG30TG) and used in the Oxidative Stability Instrument at 80° C. with the air flow rate of 40 psi. The solubility of different amounts and types of antioxidants used in OSI was checked before and after the application. […]

[1] = Oxipres antioxidant efficacy value (EV) in fish meal; settings: Oxipres 70° C., 5 bar O2, equimolar to BHT; EV relative to BHT (EV=1)
Procedure: Oxidative stability was assessed using an Oxipres (Mikrolab Aarhus A/S, Hojbjerg, Denmark). The ML OXIPRES® is designed to monitor the oxidation of heterogeneous products. Consumption of oxygen results in a pressure drop which is measured by means of pressure transducers. The samples are heated to accelerate the process and shorten the analysis time (Mikrolab Aarhus 2012).
Sample weights were 50 g. They were loaded into the Oxipres vessels and placed inside the stainless-steel pressure vessel and sealed. The pressure vessels were purged with pure oxygen and filled to an initial oxygen pressure of 5 bar and maintained at 70° C. during measurement (D. Ying, L. Edin, L. Cheng, L. Sanguansri, M. A. Augustin, LWT—Food Science and Technology 2015, 62, 1105-1111: “Enhanced oxidative stability of extruded product containing polyunsaturated oils.”).
The oxygen pressure was recorded as function of time. After sample load and temperature rise the pressure in the device is increasing within 10 hours up to the starting pressure. Thereafter it is decreasing. Consequently, the starting pressure is considered as being the pressure after 10 hours. The analysis ends after 130 hours at 70° C. The oxygen consumption ‘O2’ of the tested sample is calculated as follows: […]
A factor of protection called ‘EV’ (Efficacy Value) was developed to quantify with a relative number (relative to BHT) the antioxidant effect of the tested candidates. EV was calculated as follows:
EV, being relative to BHT (3,5-di-tert-butyl-4-hydroxy-toluene) (EV=1), makes it possible to compare the antioxidant compounds in a defined feed application.
Each of the compounds of formulae (1) to (6) were mixed into each matrix 1, 2 or 3 (pet food, poultry meal, fish meal) in an equimolar ratio compared to BHT. Batches of 200 g feed were produced in order to handle a minimum of 30 mg of antioxidant. First, a 1% pre-dilution of the antioxidant with the feed material was made. Then this pre-dilution was added to the final batch, mixed, sieved (1.25 mm sieve) and mixed using a turbula mixer. Thereafter 55 g of the final batch were packed into polyethylene bags, and stored at 4° C. until start of the Oxipres assay. Spare sample were stored at 4° C. Compound of formula (3) was measured in all three matrices. Compound of formula (1) was measured in matrix 1 and 2. Compound of formula (2) was measured in matrix 2. Compounds of formulae (4), (5) and (6) were measured in matrix 3. An efficacy value 0.7 has been considered as acceptable, an efficacy value ≥ the efficacy value of alpha-tocopherol as good, and an efficacy value ≥ the efficacy value of BHT as very good.

[2] = Oil Stability Index (OSI) in fish oil, Example 12; settings: for OSI / Protection Factor (%): FG30TG fish oil; for antioxidant effect (OSI) in fish oil compared with MNT: Example 12, same level of MNT
Procedure: The compounds of formulae (4), (6), (8) and (9) were evaluated primarily for their oxidative stability by the Oil Stability Index (OSI) measurements. Two different levels of these antioxidants (0.5 and 2 mg/g) were used in 5 g of natural fish oil (Product code: FG30TG) and used in the Oxidative Stability Instrument at 80° C. with the air flow rate of 40 psi. The solubility of different amounts and types of antioxidants used in OSI was checked before and after the application.
The compounds of formulae (6) and (9) (see Table 14 below), compound of formula (4) (see Table 15 below) and compound of formula (8) (see Table 16 below) were used at different times in the Oxidative Stability instruments under similar operational conditions used for fish oil evaluations. MNT and the oil without any antioxidants (“Blank”) were always used to compare. Also, the synergistic effect of only oil soluble compounds with ascorbyl palmitate was determined using the OSI values. The polymers generated at the end of the experiment were determined by LC (LC=liquid chromatography).
The Protection Factors (PF) for each compound in oil were calculated in percentage as: […]

[3] = Polymers generated at end of OSI experiment in fish oil, by LC; settings: FG30TG oil, end of stabilization experiment
Procedure: The compounds of formulae (6) and (9) (see Table 14 below), compound of formula (4) (see Table 15 below) and compound of formula (8) (see Table 16 below) were used at different times in the Oxidative Stability instruments under similar operational conditions used for fish oil evaluations. MNT and the oil without any antioxidants (“Blank”) were always used to compare. Also, the synergistic effect of only oil soluble compounds with ascorbyl palmitate was determined using the OSI values. The polymers generated at the end of the experiment were determined by LC (LC=liquid chromatography). Polymers generated at the end of the stabilization experiment of fish oil with compounds of formulae 6 and 9 and AP are shown in Table 24. A combination of complex, polymeric compounds generated at the end of the oxidation cascade of unsaturated fatty acids indicate the levels of overall oxidation of the matrix. The generation of such polymers in fish oil containing these novel antioxidant compounds could be reduced considerably when AP was added as a synergistic compound (Table 24).

[4] = Oil Stability Index in crude algal oil, Example 12; settings: for prooxidant effect in algal oil: higher levels (2 mg/g)
Excerpt: To evaluate the efficacy of the compounds of formulae (4), (6), (8) and (9) in algal oils, only oil soluble compounds were used. […] Protection Factors of all these compounds, including MNT, in fish oil could be improved by the addition of AP (Tables 22-23) indicating the possibility of combining AP to all these novel compounds to improve the oxidative stability of matrices containing high amounts of unsaturated fatty acids such as fish oil.

[5] = Storage stability in fish oil (PV, p-AV, CD), Example 12; settings: FG30TG, 2 mg/g
Procedure: Tables 25, 26 and 27 show the PV (peroxide value), p-AV (p-anisidine value) and CD (Conjugated dienoic acid %) of the fish oil samples stabilized with compounds of formulae (6), (8) and (9), respectively.
For the storage stability study oil soluble compounds were used in fish oil at 2 mg/g level only. […] There was no considerable variation in p-AV and CD (Tables 26-27) during the storage.

[6] = Table 20, 2 mg/g + 0.5 mg/g of AP (ascorbyl palmitate)
[7] = Table 22, 2 mg/g + 0.5 mg/g of AP

Cc1c(C)c2c(c(C)c1O)CCC(C)(CO)O2 (centres unmarked) [Compound of formula (6), 2-Hydroxymethyl-2,5,7,8-Tetramethyl-6-Chromanol]
Solubility in fish oil, 80° C. (Solubility in fish oil; 0.5 mg/g): Soluble | Solubility in fish oil, Room temp. (Solubility in fish oil; 0.5 mg/g): Soluble | Solubility in fish oil, 80° C. (Solubility in fish oil; 2.0 mg/g): Soluble | Solubility in fish oil, Room temp. (Solubility in fish oil; 2.0 mg/g): Soluble | EV in Fish meal [1]: 1.03 | OSI ([2]; Table 14, 80° C., 0.5 mg/g): 7.05 h | OSI ([2]; Table 14, 80° C., 2 mg/g): 7.30 h | Protection Factor (%) ([2]; Table 17, 0.5 mg/g): 54.95% | Protection Factor (%) ([2]; Table 17, 2 mg/g): 60.44% | OSI [2, 6]: 11.20 h | OSI ([2]; Table 20, 2 mg/g, without AP): 6.15 h | Protection Factor (%) [2, 7]: 141.9% | Protection Factor (%) ([2]; Table 22, 2 mg/g, without AP): 32.8% | antioxidant effect (OSI) in fish oil compared with MNT [2]: comparable to the effect of MNT | Polymers (%) ([3]; 2 mg/g + 0.5 mg/g of AP): 25.09% | Polymers (%) ([3]; 2 mg/g, without AP): 37.37% | OSI values in algal oil compared with MNT [4]: clearly lower OSI values than those of MNT | prooxidant effect in algal oil [4]: possible prooxidant effect | CD (conjugated dienoic acid in %) ([5]; 4 days): 0.7% | PV (peroxide value) ([5]; 4 days): 4.1 | p-AV (p-anisidine value) ([5]; 4 days): 10.4 | CD (conjugated dienoic acid in %) ([5]; 6 days): 0.7% | PV (peroxide value) ([5]; 6 days): 7 | p-AV (p-anisidine value) ([5]; 6 days): 9.7 | CD (conjugated dienoic acid in %) ([5]; 8 days): 0.7% | PV (peroxide value) ([5]; 8 days): 7.9 | p-AV (p-anisidine value) ([5]; 8 days): 10.2 | CD (conjugated dienoic acid in %) ([5]; 11 days): 0.8% | PV (peroxide value) ([5]; 11 days): 10.2 | p-AV (p-anisidine value) ([5]; 11 days): 10.4 | CD (conjugated dienoic acid in %) ([5]; 13 days): 0.8% | PV (peroxide value) ([5]; 13 days): 14.9 | p-AV (p-anisidine value) ([5]; 13 days): 10.3 | CD (conjugated dienoic acid in %) ([5]; 15 days): 0.8% | PV (peroxide value) ([5]; 17 days): 18.6 | p-AV (p-anisidine value) ([5]; 17 days): 10.7 | CD (conjugated dienoic acid in %) ([5]; Initial): 0.7% | PV (peroxide value) ([5]; Initial): 0.9 | p-AV (p-anisidine value) ([5]; Initial): 9.9

Cc1c(C)c2c(c(C)c1O)CCC(C)(CCCC(C)C)O2 (centres unmarked) [Compound of formula (9)]
Solubility in fish oil, 80° C. (Solubility in fish oil; 0.5 mg/g): Soluble | Solubility in fish oil, Room temp. (Solubility in fish oil; 0.5 mg/g): Soluble | Solubility in fish oil, 80° C. (Solubility in fish oil; 2.0 mg/g): Soluble | Solubility in fish oil, Room temp. (Solubility in fish oil; 2.0 mg/g): Soluble | OSI ([2]; Table 14, 80° C., 0.5 mg/g): 5.75 h | OSI ([2]; Table 14, 80° C., 2 mg/g): 6.05 h | Protection Factor (%) ([2]; Table 17, 0.5 mg/g): 26.37% | Protection Factor (%) ([2]; Table 17, 2 mg/g): 32.97% | OSI [2, 6]: 8.93 h | OSI ([2]; Table 20, 2 mg/g, without AP): 6.30 h | Protection Factor (%) [2, 7]: 92.8% | Protection Factor (%) ([2]; Table 22, 2 mg/g, without AP): 36.1% | antioxidant effect (OSI) in fish oil compared with MNT [2]: comparable to the antioxidative effect of MNT | Polymers (%) ([3]; 2 mg/g + 0.5 mg/g of AP): 31.06% | Polymers (%) ([3]; 2 mg/g, without AP): 40.34% | OSI values in algal oil compared with MNT [4]: clearly lower OSI values than those of MNT | prooxidant effect in algal oil [4]: possible prooxidant effect | CD (conjugated dienoic acid in %) ([5]; 4 days): 0.7% | PV (peroxide value) ([5]; 4 days): 2.9 | p-AV (p-anisidine value) ([5]; 4 days): 10.5 | CD (conjugated dienoic acid in %) ([5]; 6 days): 0.7% | PV (peroxide value) ([5]; 6 days): 7.3 | p-AV (p-anisidine value) ([5]; 6 days): 9.9 | CD (conjugated dienoic acid in %) ([5]; 8 days): 0.8% | PV (peroxide value) ([5]; 8 days): 8.8 | p-AV (p-anisidine value) ([5]; 8 days): 10.3 | CD (conjugated dienoic acid in %) ([5]; 11 days): 0.9% | PV (peroxide value) ([5]; 11 days): 11.2 | p-AV (p-anisidine value) ([5]; 11 days): 10.5 | CD (conjugated dienoic acid in %) ([5]; 13 days): 0.8% | PV (peroxide value) ([5]; 13 days): 15 | p-AV (p-anisidine value) ([5]; 13 days): 10.5 | CD (conjugated dienoic acid in %) ([5]; 15 days): 0.8% | PV (peroxide value) ([5]; 17 days): 19.2 | p-AV (p-anisidine value) ([5]; 17 days): 11 | CD (conjugated dienoic acid in %) ([5]; Initial): 0.7% | PV (peroxide value) ([5]; Initial): 0.9 | p-AV (p-anisidine value) ([5]; Initial): 9.9
